Measured values reported in patent US20160159789A1, “SUBSTITUTED PYRAZOLOPYRIDINES” (BAYER PHARMA AKTIENGESELLSCHAFT, priority 2013, published 2016).

Molecular target: T1, human full-length MKNK1 (Homo sapiens, UniProt Q9BUB5, T385D)
T1 construct: purchased Carna Biosciences 02-145; host or cells: insect cells (baculovirus expression system)
Assay: MKNK1 kinase high ATP assay (TR-FRET)
Type: biochemical
Conditions: high ATP (2 mM final), 15 min preincubation with enzyme, GST-MKNK1 (T344D)
Method: MKNK1-inhibitory activity at high ATP of compounds of the present invention after their preincubation with MKNK1 was quantified employing the TR-FRET-based MKNK1 high ATP assay as described in the following paragraphs.
A recombinant fusion protein of Glutathione-S-Transferase (GST, N-terminally) and human full-length MKNK1 (amino acids 1-424 and T344D of accession number BAA 19885.1), expressed in insect cells using baculovirus expression system and purified via glutathione sepharose affinity chromatography, was purchased from Carna Biosciences (product no 02-145) and used as enzyme. As substrate for the kinase reaction the biotinylated peptide biotin-Ahx-IKKRKLTRRKSLKG (C-terminus in amide form) was used, which can be purchased e.g. from the company Biosyntan (Berlin-Buch, Germany).
For the assay 50 nL of a 100 fold concentrated solution of the test compound in DMSO was pipetted into a black low volume 384 well microtiter plate (Greiner Bio-One, Frickenhausen, Germany), 2 μL of a solution of MKNK1 in aqueous assay buffer [50 mM HEPES pH 7.5, 5 mM MgCl2, 1.0 mM dithiothreitol, 0.005% (v/v) Nonidet-P40 (Sigma)] was added and the mixture was incubated for 15 min at 22° C. to allow pre-binding of the test compounds to the enzyme before the start of the kinase reaction. Then the kinase reaction was started by the addition of 3 μL of a solution of adenosine-tri-phosphate (ATP, 3.3 mM=> final conc. in the 5 μL assay volume is 2 mM) and substrate (0.1 μM=> final conc. in the 5 μL assay volume is 0.06 μM) in assay buffer and the resulting mixture was incubated for a reaction time of 30 min at 22° C. The concentration of MKNK1 was adjusted depending of the activity of the enzyme lot and was chosen appropriate to have the assay in the linear range, typical concentrations were in the range of 0.003 μg/mL. The reaction was stopped by the addition of 5 μL of a solution of TR-FRET detection reagents (5 nM streptavidine-XL665 [Cisbio Bioassays, Codolet, France] and 1 nM anti-ribosomal protein S6 (pSer236)-antibody from Invitrogen [#44921G] and 1 nM LANCE EU-W1024 labeled ProteinG [Perkin-Elmer, product no. AD0071]) in an aqueous EDTA-solution (100 mM EDTA, 0.1% (w/v) bovine serum albumin in 50 mM HEPES pH 7.5).
The resulting mixture was incubated for 1 h at 22° C. to allow the formation of complex between the phosphorylated biotinylated peptide and the detection reagents. Subsequently the amount of phosphorylated substrate was evaluated by measurement of the resonance energy transfer from the Eu-chelate to the streptavidine-XL. Therefore, the fluorescence emissions at 620 nm and 665 nm after excitation at 350 nm were measured in a TR-FRET reader, e.g. a Rubystar (BMG Labtechnologies, Offenburg, Germany) or a Viewlux (Perkin-Elmer). The ratio of the emissions at 665 nm and at […] was taken as the measure for the amount of phosphorylated substrate. The data were normalised (enzyme reaction without inhibitor=0% inhibition, all other assay components but no enzyme=100% inhibition).

T1 sequence (Q9BUB5 1-424 isoform Q9BUB5-2 T344D): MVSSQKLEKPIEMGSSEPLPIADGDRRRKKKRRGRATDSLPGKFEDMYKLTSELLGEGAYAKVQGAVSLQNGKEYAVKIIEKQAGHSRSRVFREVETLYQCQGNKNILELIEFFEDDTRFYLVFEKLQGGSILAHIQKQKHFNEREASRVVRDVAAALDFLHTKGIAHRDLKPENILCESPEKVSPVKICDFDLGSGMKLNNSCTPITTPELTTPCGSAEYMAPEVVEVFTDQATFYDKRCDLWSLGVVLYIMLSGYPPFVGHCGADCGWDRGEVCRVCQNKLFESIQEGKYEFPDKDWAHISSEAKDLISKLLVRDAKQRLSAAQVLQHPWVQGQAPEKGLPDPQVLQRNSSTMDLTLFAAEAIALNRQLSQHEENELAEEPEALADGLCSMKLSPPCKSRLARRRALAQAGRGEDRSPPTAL

Structure (SMILES)	IC50
COc1nc2[nH]ncc2cc1Nc1ncnc2sc3c(c12)CC[C@H](C(=O)N1CCOC[C@@H]1C)C3 [Example 45]	0.7 nM
O=C(c1[nH]c2ncnc(Nc3cc4cn[nH]c4cn3)c2c1Br)N1CCOCC1 [Example 71, [5-Bromo-4-(1H-pyrazolo[3,4-c]pyridin-5-ylamino)-7H-pyrrolo[2,3-d]pyrimidin-6-yl](morpholin-4-yl)methanone]	43.2 nM
O=C([C@H]1CCc2c(sc3ncnc(Nc4cc5cn[nH]c5nc4O)c23)C1)N1C[C@@H]2C[C@H]1CO2 [Example 115]	6.9 nM
CCOC(=O)c1cc2c(Nc3cc4cn[nH]c4cn3)ncnc2[nH]1 [Example 10, Ethyl 4-(1H-pyrazolo[3,4-c]pyridin-5-ylamino)-7H-pyrrolo[2,3-d]pyrimidine-6-carboxylate]	6.6 nM
CN(C)[C@@H]1CCN(C(=O)[C@H]2CCc3c(sc4ncnc(Nc5cnc6[nH]ncc6c5)c34)C2)C1 [Example 101, [(3R)-3-(Dimethylamino)pyrrolidin-1-yl][(7S)-4-(1H-pyrazolo[3,4-b]pyridin-5-ylamino)-5,6,7,8-tetrahydro[1]benzothieno[2,3-d]pyrimidin-7-yl]methanone]	4.6 nM
COc1nc2[nH]ncc2cc1Nc1ncnc2sc3c(c12)CC[C@H](C(=O)N1CCC(N(C)C)CC1)C3 [Example 43, [4-(Dimethylamino)piperidin-1-yl]{(7S)-4-[(6-methoxy-1H-pyrazolo[3,4-b]pyridin-5-yl)amino]-5,6,7,8-tetrahydro[1]benzothieno[2,3-d]pyrimidin-7-yl}methanone]	1.6 nM
O=C(O)c1cc2c(Nc3cc4cn[nH]c4cn3)ncnc2[nH]1 [Example 11, 4-(1H-Pyrazolo[3,4-c]pyridin-5-ylamino)-7H-pyrrolo[2,3-d]pyrimidine-6-carboxylic acid]	24.1 nM
O=C(O)c1[nH]c2ncnc(Nc3cc4cn[nH]c4cn3)c2c1Br [Example 14, 5-Bromo-4-(1H-pyrazolo[3,4-c]pyridin-5-ylamino)-7H-pyrrolo[2,3-d]pyrimidine-6-carboxylic acid]	2.8 nM
O=C([C@H]1CCc2c(sc3ncnc(Nc4cc5cn[nH]c5cn4)c23)C1)N1CC2(COC2)C1 [Example 83, 2-Oxa-6-azaspiro[3.3]hept-6-yl[(7S)-4-(1H-pyrazolo[3,4-c]pyridin-5-ylamino)-5,6,7,8-tetrahydro[1]benzothieno[2,3-d]pyrimidin-7-yl]methanone]	6.9 nM
COCCN(C)C(=O)[C@H]1CCc2c(sc3ncnc(Nc4cnc5[nH]ncc5c4)c23)C1 [Example 96, (7S)—N-(2-Methoxyethyl)-N-methyl-4-(1H-pyrazolo[3,4-b]pyridin-5-ylamino)-5,6,7,8-tetrahydro[1]benzothieno[2,3-d]pyrimidine-7-carboxamide]	18.8 nM
CN(C)C(=O)c1cc2c(Nc3cc4cn[nH]c4cn3)ncnc2[nH]1 [Example 18, N,N-Dimethyl-4-(1H-pyrazolo[3,4-c]pyridin-5-ylamino)-7H-pyrrolo[2,3-d]pyrimidine-6-carboxamide]	11.1 nM
O=C(c1[nH]c2ncnc(Nc3cc4cn[nH]c4nc3O)c2c1Br)N1CCOCC1 [Example 68]	10.1 nM
O=C([C@H]1CCc2c(sc3ncnc(Nc4cc5cn[nH]c5cn4)c23)C1)N1CCOCC1 [Example 86, Morpholin-4-yl [(7S)-4-(1H-pyrazolo[3,4-c]pyridin-5-ylamino)-5,6,7,8-tetrahydro[1]benzothieno[2,3-d]pyrimidin-7-yl]methanone]	7.1 nM
COc1nc2[nH]ncc2cc1Nc1ncnc2sc3c(c12)CC[C@H](C(=O)N1CC(N(C)C)C1)C3 [Example 141, [3-(Dimethylamino)azetidin-1-yl]{(7S)-4-[(6-methoxy-1H-pyrazolo[3,4-b]pyridin-5-yl)amino]-5,6,7,8-tetrahydro[1]benzothieno[2,3-d]pyrimidin-7-yl}methanone]	1.2 nM
CN(C)CCCN(C)C(=O)c1[nH]c2ncnc(Nc3cc4cn[nH]c4nc3O)c2c1Br [Example 132, 5-Bromo-N-[3-(dimethylamino)propyl]-4-[(6-hydroxy-1H-pyrazolo[3,4-b]pyridin-5-yl)amino]-N-methyl-7H-pyrrolo[2,3-d]pyrimidine-6-carboxamide]	23.4 nM
CN1CCN(C(=O)[C@H]2CCc3c(sc4ncnc(Nc5cc6cn[nH]c6cn5)c34)C2)CC1 [Example 90, (4-Methylpiperazin-1-yl)[(7S)-4-(1H-pyrazolo[3,4-c]pyridin-5-ylamino)-5,6,7,8-tetrahydro[1]benzothieno[2,3-d]pyrimidin-7-yl]methanone]	5.2 nM

The remaining molecules from weak to strong by IC50, led by results:

IC50	Structure (SMILES)
171 nM	O=C(c1nc2c(Nc3cnc4[nH]ncc4c3)ncnc2s1)N1CCCCC1 [Example 126, Piperidin-1-yl[7-(1H-pyrazolo[3,4-b]pyridin-5-ylamino)[1,3]thiazolo[5,4-d]pyrimidin-2-yl]methanone]
65.9 nM	CN(C)CCNC(=O)c1[nH]c2ncnc(Nc3cnc4[nH]ncc4c3)c2c1Br [Example 124, 5-Bromo-N-[2-(dimethylamino)ethyl]-4-(1H-pyrazolo[3,4-b]pyridin-5-ylamino)-7H-pyrrolo[2,3-d]pyrimidine-6-carboxamide]
29.2 nM	CN(C)CCCNC(=O)c1[nH]c2ncnc(Nc3cnc4[nH]ncc4c3)c2c1Br [Example 125, 5-Bromo-N-[3-(dimethylamino)propyl]-4-(1H-pyrazolo[3,4-b]pyridin-5-ylamino)-7H-pyrrolo[2,3-d]pyrimidine-6-carboxamide]
19.8 nM	CN(C)C1CCN(C(=O)c2[nH]c3ncnc(Nc4cc5cn[nH]c5cn4)c3c2Br)CC1 [Example 69, [5-Bromo-4-(1H-pyrazolo[3,4-c]pyridin-5-ylamino)-7H-pyrrolo[2,3-d]pyrimidin-6-yl][4-(dimethylamino)piperidin-1-yl]methanone]
18.1 nM	C[C@@H]1CN(C(=O)[C@H]2CCc3c(sc4ncnc(Nc5cnc6[nH]ncc6c5)c34)C2)C[C@H](C)O1 [Example 105, [(2R,6S)-2,6-Dimethylmorpholin-4-yl][(7S)-4-(1H-pyrazolo[3,4-b]pyridin-5-ylamino)-5,6,7,8-tetrahydro[1]benzothieno[2,3-d]pyrimidin-7-yl]methanone]
13.8 nM	CN1CCN(C(=O)C2CCc3c(sc4ncnc(Nc5cnc6[nH]ncc6c5)c34)C2)CC1 (racemic) [Example 25, (RS)-(4-Methylpiperazin-1-yl)[4-(1H-pyrazolo[3,4-b]pyridin-5-ylamino)-5,6,7,8-tetrahydro[1]benzothieno[2,3-d]pyrimidin-7-yl]methanone]
11.8 nM	CN(C)C1CN(C(=O)[C@H]2CCc3c(sc4ncnc(Nc5cnc6[nH]ncc6c5)c34)C2)C1 [Example 142, [3-(Dimethylamino)azetidin-1-yl][(7S)-4-(1H-pyrazolo[3,4-b]pyridin-5-ylamino)-5,6,7,8-tetrahydro[1]benzothieno[2,3-d]pyrimidin-7-yl]methanone]
8.1 nM	CN(C)CCCNC(=O)c1[nH]c2ncnc(Nc3cc4cn[nH]c4cn3)c2c1Br [Example 118, 5-Bromo-N-[3-(dimethylamino)propyl]-4-(1H-pyrazolo[3,4-c]pyridin-5-ylamino)-7H-pyrrolo[2,3-d]pyrimidine-6-carboxamide]
5 nM	CCOC(=O)c1[nH]c2ncnc(Nc3cnc4[nH]ncc4c3)c2c1Br [Example 12, Ethyl 5-bromo-4-(1H-pyrazolo[3,4-b]pyridin-5-ylamino)-7H-pyrrolo[2,3-d]pyrimidine-6-carboxylate]
4.7 nM	CN(CCC(F)(F)F)C(=O)[C@H]1CCc2c(sc3ncnc(Nc4cc5cn[nH]c5nc4O)c23)C1 [Example 139, (7S)-4-[(6-Hydroxy-1H-pyrazolo[3,4-b]pyridin-5-yl)amino]-N-methyl-N-(3,3,3-trifluoropropyl)-5,6,7,8-tetrahydro[1]benzothieno[2,3-d]pyrimidine-7-carboxamide]
0.9 nM	COc1nc2[nH]ncc2cc1Nc1ncnc2sc3c(c12)CC[C@H](C(=O)N1CCOC[C@H]1C)C3 [Example 44]
